Test results as given in patent publication US20230278953A1, “WATER SOLUBLE PRODRUGS OF PTBA FOR USE IN HDAC INHIBITION AND ENHANCING RENAL RECOVERY FOLLOWING ACUTE KIDNEY INJURY” (KLOTHO THERAPEUTICS, INC., priority 2020, published 2023).
Values after ≈ are worked out from the molar mass of the structure shown.

Legend:
[1] = Determination of Kinetic Solubility; type: physicochemical; conditions: phosphate-buffered saline, aqueous buffer, kinetic from dmso stock; PBS pH 7.4, 2% final DMSO, 25° C., two hours; effective range approximately 2-400 μM
Method: A 20 mM stock solution of the test compound in 100% DMSO dilutions were prepared to a theoretical concentration of 400 μM in duplicates in phosphate-buffered saline pH 7.4 (138 mM NaCl, 2.7 mM KCl, 10 mM K-phosphate) with 2% final DMSO. The experimental compound dilutions in PBS were further allowed to equilibrate at 25° C. on a thermostatic shaker for two hours and then filtered through HTS filter plates using a vacuum manifold. The filtrates of test compounds were diluted 2-fold with acetonitrile with 2% DMSO before measuring.
In parallel, compound dilutions in 50% acetonitrile/PBS were prepared to theoretical concentrations of 0 μM (blank), 10 μM, 25 μM, 50 μM, 100 μM, and 200 μM with 2% final DMSO to generate calibration curves. Ondansetron was used as reference compound to control proper assay performance 200 μl of each sample was transferred to 96-well plate and measured in 200-550 nm range with 5 nm step.
The concentrations of compounds in PBS filtrate were calculated using a dedicated Microsoft Excel calculation script. Proper absorbance wavelengths for calculations were selected for each compound manually based on absorbance maximums (absolute absorbance unit values for the minimum and maximum concentration points within 0-3 OD range). Each of the final datasets was additionally visually evaluated by the operator and goodness of fit (R2) was calculated for each calibration curve.

[2] = test system: cisplatin induced acute kidney injury (CI-AKI); assay: cisplatin induced acute kidney injury (CI-AKI) in mice, Compound 3; type: in vivo, C57BL/6J mice
Method: The aim of the study was to investigate the efficacy of test compounds in the model of cisplatin induced acute kidney injury (CI-AKI) in mice.
Serum analysis for urea (BUN) was performed on the 5th day and 9th days after cisplatin administration. The mean body weight loss per group was calculated every day of the study as percentage loss of initial (day 0) weight for each individual animal.
Study design, animal selection, handling and treatment were all in accordance with the CRO's study protocols and Institutional Animal Care and Use Guidelines Animal treatment and serum samples preparation were conducted by the Animal Laboratory personnel at the CRO. 60 female C57BL/6J mice 9-12 weeks old were randomized by body weight and divided into 2 groups, 30 animals each. Body weights ranged from 13.9 to 22.0 g with an average body weight across all groups 17.75 g (SD=1.30; CV=7.3%). Each mouse was treated with a single dose via IP route of administration with cisplatin at the dose of 11 mg/kg on the day 0 of the study. […] The mice in Group 1 remained untreated after the cisplatin injection until the terminal sacrifice.
Cisplatin was administered without dilution as a factory-made 1 mg/ml solution for infusion at the injection volume of 11 ml/kg for the dose of 11 mg/kg. […] Only freshly prepared formulation was used for each dosing; each working formulation batch was prepared immediately prior to the administration. The working formulations were sterile filtered using 0.2 μm cellulose acetate syringe filters before injections. The dosing volume for the test compound was 5 ml/kg of body weight. The working formulations were administered as transparent clear solutions. Intraperitoneal (IP) route of administration was used in the study. Urea (BUN) was determined in the serum using a commercial kit according to the manufacturer's instructions. […] The rate of absorbance change at λ=340 nm is proportional to the urea concentration. […] Creatinine was measured using mModified Jaffe's method, without deproteinization. […]

[3] = test system: cisplatin-induced acute kidney injury (CI-AKI); assay: cisplatin-induced acute kidney injury (CI-AKI) mouse model, Compound 22; type: in vivo, C57BL/6J mice; conditions: for gradual recovery of mean body weight: cisplatin 11 mg/kg IP Day 0
Method: The aim of the study was to investigate the efficacy of test compound(s) in a (mouse) model for acute kidney injury. Specifically, the study investigated the efficacy of test compound(s) in cisplatin-induced acute kidney injury (CI-AKI) mouse model. For example, the effect of daily repeated intraperitoneal (IP) administration of Compound 22 at doses of 50 mg/kg for 7 consecutive days in four different treatment regimens on development of pathology in mice in CI-AKI model was evaluated. Serum analysis for urea (BUN) was performed on the 5th day and 12th days after cisplatin administration. The mean body weight loss per group was calculated every day of the study as percentage loss of initial (day 0) weight for each individual animal.
Study design, animal selection, handling and treatment were all in accordance with the CRO's study protocols and Institutional Animal Care and Use Guidelines Animal treatment and serum samples preparation were conducted by the Animal Laboratory personnel at the CRO. 100 female C57BL/6J mice 11-14 weeks old were randomized by body weight and divided into five groups, 20 animals each. Body weights ranged from 16.9 to 22.5 g with an average body weight across all groups 19.54 g (SD=1.04; CV=5.3%). Each mouse was treated with a single dose via IP route of administration with cisplatin at the dose of 11 mg/kg on the day 0 of the study. The mice in Group 2 and 4 were repeatedly treated with Compound 22 at the dose of 50 mg/kg with an interval of 24 h for seven consecutive days starting from Day 2 or Day 0 of the study, respectively. […]
To induce acute kidney injury, Cisplatin was administered without dilution as a factory-made 1 mg/ml solution for infusion at the injection volume of 11 ml/kg for the dose of 11 mg/kg. […] Urea (BUN) was determined in the serum using a commercial kit according to the manufacturer's instructions. […] The rate of absorbance change at λ=340 nm is proportional to the urea concentration. […]

[4] = test system: Ischemia-Reperfusion Induced Acute Kidney Injury (IRI-AKI); assay: Ischemia-Reperfusion Induced Acute Kidney Injury (IRI-AKI) in rats; type: in vivo, Sprague Dawley male rats; conditions: 10 mg/kg IV, seven days repeated; 60 minutes bilateral renal occlusion; 3 days after IRI; vs Vehicle treated group
Method: The aim of the study was to investigate the efficacy of test compounds in the model of Ischemia-Reperfusion Induced Acute Kidney Injury (IRI-AKI) in Sprague Dawley male rats. IRI-AKI model was developed in experimental animals by applying bilateral renal occlusion. The duration of the occlusion was equal 60 minutes. For instance, rhe effects of seven days repeated intravenous (IV) administration of compound 22 of 10 mg/kg on pathology dynamics in rats exposed to IRI-AKI was assessed. […] Serum analysis for creatinine was performed one day prior to ischemia-reperfusion surgery, 24 hours after, and on the 3rd, 5th, and 7th day after IRI-AKI intervention. Study design, animal selection, handling and treatment were all in accordance with the CRO's study protocols and Institutional Animal Care and Use Guidelines Animal treatment and serum samples preparation were conducted by the Animal Laboratory personnel at the CRO. 28 male Sprague Dawley rats 11-14 weeks old were randomized by body weight All experimental animal were anesthetized prior to surgical intervention by Telazol at the dose of 40 mg/kg body weight and Xylazine at the dose of 7 mg/kg body weight. Acute renal injury model was achieved by performing bilateral renal occlusion. […] Creatinine was measured using mModified Jaffe's method, without deproteinization. […]

renal progenitor cells = conditions: zebrafish embryos; proliferation-dependent manner; cited from earlier work
[5] = 50 mg/kg IP, 5th day after the cisplatin injection

Structure (SMILES) | solubility kinetic at 2 h [1] | other results
CCN1CCC(OC(=O)CCCSc2ccccc2)CC1.O=C(O)C(F)(F)F [Compound 1, 1-ethylpiperidin-4-yl 4-(phenylsulfanyl)butanoate] | > 400 µM | –
CN1CCC(C)(OC(=O)CCCSc2ccccc2)CC1.O=C(O)C(F)(F)F [Compound 2, 1,4-dimethylpiperidin-4-yl 4-(phenylsulfanyl)butanoate] | > 400 µM | –
CN(C)CCOC(=O)CCCSc1ccccc1 [Compound 3, 2-(dimethylamino)ethyl 4-(phenylsulfanyl)butanoate] | – | mean level of creatinine in serum compared to G1 [2, 5]: significantly less; mean level of urea in serum compared to G1 [2, 5]: significantly less; gradual recovery of mean body weight ([2]; G2: 50 mg/kg IP every 24 h for seven days starting Day 2, cisplatin 11 mg/kg IP Day 0): beginning from the sixth day of the study
O=C(CCCSc1ccccc1)OCCOCCO [Compound 7] | 385 µM (≈ 109 µg/mL) | –
CN1CCN(CCOC(=O)CCCSc2ccccc2)CC1.O=C(O)C(F)(F)F [Compound 13] | > 400 µM | –
CN1CC2(CC(OC(=O)CCCSc3ccccc3)C2)C1 [Compound 15] | ≥ 400 µM | –
O=C(CCCSc1ccccc1)O[C@@H]1CCNC1.O=C(O)C(F)(F)F [Compound 17] | > 400 µM | –
C[N+](C)(C)CCOC(=O)CCCSc1ccccc1.[Cl-] [Compound 22, N,N,N-trimethyl-2-{[4-(phenylsulfanyl)butanoyl]oxy}ethan-1-aminium chloride] | 398 µM | gradual recovery of mean body weight ([3]; G2-G3: 50 mg/kg IP once or twice a day for seven days starting Day 2): beginning from the fifth day of the study; mean level of urea in serum compared to G1 ([3]; G2-G5, 50 mg/kg IP, 5th day after the cisplatin injection, vs untreated G1): significantly less; gradual recovery of mean body weight ([3]; G4-G5: 50 mg/kg IP once or twice a day for seven days starting Day 0): beginning from the seventh day of the study; Creatinine level in serum [4]: significantly decreased
NCCCC[C@@H](N)C(=O)NCCOC(=O)CCCSc1ccccc1.O=C(O)C(F)(F)F.O=C(O)C(F)(F)F [Compound 23] | 399 µM | –
O=C(O)CCCSc1ccccc1 [PTBA, 4-(phenylthio)butanoic acid] | – | effect on pool of renal progenitor cells (renal progenitor cells): seemed to expand the pool of renal progenitor cells

Continued, in another order:

solubility kinetic at 2 h [1] | Structure (SMILES) | other results
396 µM (≈ 129 µg/mL) | O=C(O)CC[C@@H](NC(=O)CCCSc1ccccc1)C(=O)O [Compound 5] | –
> 400 µM | O=C(CCCSc1ccccc1)OCC(O)CO (centres unmarked) [Compound 6] | –
383 µM | Cl.NCCC[C@@H](NC(=O)CCCSc1ccccc1)C(=O)O [Compound 8] | –
383 µM | NCCC[C@H](NC(=O)CCCSc1ccccc1)C(=O)N[C@@H](CC(=O)O)C(=O)O.O=C(O)C(F)(F)F [Compound 9] | –
391 µM | NCCC[C@@H](NC(=O)CCCSc1ccccc1)C(=O)N[C@H](CCC(=O)O)C(=O)O.O=C(O)C(F)(F)F [Compound 11] | –
> 400 µM | NCCC[C@@H](NC(=O)[C@@H](CCC(=O)O)NC(=O)CCCSc1ccccc1)C(=O)O.O=C(O)C(F)(F)F [Compound 12] | –
387 µM (≈ 120 µg/mL) | O=C(O)C[C@@H](NC(=O)CCCSc1ccccc1)C(=O)O [Compound 14] | –
> 400 µM | O=C(CCCSc1ccccc1)OCCNCCO [Compound 16] | –
362 µM | C[C@H](CN(C)C)OC(=O)CCCSc1ccccc1.O=C(O)C(F)(F)F [Compound 18] | –
> 400 µM | O=C(O)C[C@@H](OC(=O)CCCSc1ccccc1)C(=O)O [Compound 19] | –
> 400 µM | O=C(O)CC[C@H](NC(=O)[C@H](CO)NC(=O)CCCSc1ccccc1)C(=O)O [Compound 20] | –
> 400 µM | N[C@@H](COC(=O)CCCSc1ccccc1)C(=O)N[C@H](CCC(=O)O)C(=O)O.O=C(O)C(F)(F)F [Compound 21] | –
390 µM (≈ 137 µg/mL) | CC(C)[C@@H](N)C(=O)NCCCOC(=O)CCCSc1ccccc1 [Compound 24] | –
